Laboratory results as given in patent US12661409B2, “Target validation and profiling of the RNA targets of small molecules” (priority 2018, dated 2026).

Legend:
[1] = biological target: DNA; test: Microscale thermophoresis (MST) affinity for DNA; format: binding
[2] = tested on: FOXO1 protein; conditions: TNBC cells; cited from earlier work
[3] = tested on: MDA-MB-231 cells; conditions: TNBC cells; cited from earlier work
[4] = biological target: pri-miR-96; test: Microscale thermophoresis (MST) affinity for pri-miR-96; format: binding
[5] = tested on: mature miR-96; test: RT-qPCR of mature miR-96 levels; format: cell-based; conditions: MDA-MB-231 TNBC cells; 2 complexed with Fe2+ (1 equivalent)
[6] = tested on: pri-miR-96; test: RT-qPCR of pri-miR-96 levels; format: cell-based
[7] = tested on: mature miR-96; conditions: triple negative breast cancer (TNBC) cells; cited from earlier work

Row | Compound | Kd [1] [nM] | Effect on FOXO1 (earlier study) [2] | Effect on apoptosis (earlier study) [3] | Kd [4] [nM] | Effect on mature miR-96 levels [5] | Effect on pri-miR-96 levels ([6]; MDA-MB-231 TNBC cells, 2 complexed with Fe2+ (1 equivalent)) | Competition of the pri-miR-96 cleavage caused by 2 ([6]; increasing concentrations of 1 (5 to 500 nM), constant 2 (500 nM), MDA-MB-231 cells) | Effect on production of mature miR-96 (earlier study) [7]
1 | Cc1c(N)nc([C@H](CC(N)=O)NC[C@H](N)C(N)=O)nc1C(=O)N[C@H](C(=O)N[C@H](C)[C@@H](O)[C@H](C)C(=O)N[C@H](C(=O)NCCc1nc(-c2nc(C(=O)NCCCNCCCCN)cs2)cs1)[C@@H](C)O)[C@@H](O[C@@H]1O[C@@H](CO)[C@@H](O)[C@H](O)[C@@H]1O[C@@H]1O[C@H](CO)[C@@H](O)[C@H](OC(N)=O)[C@@H]1O)c1cnc[nH]1 [bleomycin A5] | ~1000 | – | – | – | – | – | – | –
2 | Targaprimir-96 [Compound 1] | – | de-repressed | triggered apoptosis | 39 ± 18 | reduced | increased | effectively competed off | inhibited the production of mature miR-96
